# In patent publication EP4328302A1, “SYNTHESIS OF […] P450 MONO[…] A […]-FREE SYSTEM […] VESICLES” (Fraunhofer-Gesellschaft zur Förderung der angewandten …, priority 2022, dated 2024):
# Biological target: T1, CYP3A4 (Homo sapiens, UniProt P08684)
# T1 construct: made in house; host or cells: cell-free protein synthesis in translationally active lysates of CHO-K1 or modified CHO (CHO-CPR, CHO-CPR/CYP3A4) cells; plasmid template from Biocat GmbH
# Experiment: Luciferase based CYP3A4 activity assay (P450-Glo, Luciferin-IPA turnover) in the microsomal fraction after cell-free synthesis with heme supplementation
# Format: biochemical
# Experimental: Synthesis of proteins in translationally active lysates derived from cultured Chinese hamster ovary (CHO) cells and its modified variants CHO-CPR and CHO-CPR/CYP3A4 cells, was performed in batch based systems as previously described (Thoring et al. 2016). Accordingly designed plasmids, suitable for CFPS, coding for the CYP of interest, were applied as template. T7 RNA Polymerase, amino acids, an energy regeneration system and other supplements were added to the translationally active lysates with the additional supplementation of 5 µM heme (porcine) (Alfa Aesar Haverhill, Massachusetts, USA) to the reaction and a reaction temperature of 24 °C despite elsewise noted. For the isolation of the microsomes the translation mixture (TM) was centrifuged at 16.000 x g for 10 minutes at 4 °C. […]
# For CYP activity measurement,"P450-Glo™ Assays" (Promega, Madison, Wisconsin, USA) were used. CYP1A2 activity was detected by Luciferase-ME turnover (V8772), CYP2B6 was detected by Luciferin-2B6 turnover (V8321) and CYP3A4 was detected by Luciferin-IPA turnover (V9001). […] For response condition adjustments, CYP activities were usually expressed as percentage of the highest CYP activity during the assay. For CYP activity quantification, a standard curve was prepared using beetles luciferin (Promega, Madison, Wisconsin, USA) according to the attached protocol. […]
# T1 sequence (P08684 whole entry): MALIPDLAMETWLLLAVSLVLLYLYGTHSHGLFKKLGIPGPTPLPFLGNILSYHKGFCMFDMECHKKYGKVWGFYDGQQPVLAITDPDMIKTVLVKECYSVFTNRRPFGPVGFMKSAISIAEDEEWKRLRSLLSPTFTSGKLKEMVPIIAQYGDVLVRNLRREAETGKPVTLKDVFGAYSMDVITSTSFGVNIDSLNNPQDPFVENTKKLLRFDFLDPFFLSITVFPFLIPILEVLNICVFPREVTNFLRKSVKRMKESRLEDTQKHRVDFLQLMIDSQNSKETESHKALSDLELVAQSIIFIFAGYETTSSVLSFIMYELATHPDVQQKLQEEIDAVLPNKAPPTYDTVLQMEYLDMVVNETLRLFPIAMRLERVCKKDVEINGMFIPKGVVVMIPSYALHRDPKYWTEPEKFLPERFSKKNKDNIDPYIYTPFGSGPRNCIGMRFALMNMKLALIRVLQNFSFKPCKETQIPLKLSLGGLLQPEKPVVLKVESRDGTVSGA
smiles,measurement,setting,value
C=CC1=C(C)c2cc3[n-]c(cc4[n-]c(cc5nc(cc1n2)C(C)=C5C=C)c(C)c4CCC(=O)O)c(CCC(=O)O)c3C.[Fe+2] [heme],CYP3A4 activity compared to the control without supplementation,"heme concentration of 5 µM in the cell-free reaction, microsomal fraction (MF), triplicate analysis, highest CYP3A4 activity",more than twofold higher
same,reduced activity compared to the 5 µM heme supplemented sample,"supplementation of higher concentrations of heme (above 5 µM) to the cell-free reaction, CYP3A4 activity in MF",60%
